From paper PMC5814837 (Pest Management Science, 2017)

Biological target: mitochondrial succinate dehydrogenase (SDH) (Zymoseptoria tritici, UniProt F9X9V6+F9XH52+O42772, A84V)
Test: biochemical
Settings: IC50

Compound | IC50
Cn1cc(C(=O)Nc2ccc(F)cc2-c2ccc(Cl)c(Cl)c2)c(C(F)F)n1 [Bixafen, bixafen] | 0.106 ± 0.017 µM
O=C(NCCc1ncc(C(F)(F)F)cc1Cl)c1ccccc1C(F)(F)F [Fluopyram, fluopyram] | 14.8 ± 1.32 µM
Cc1cc(OC(C)C)ccc1C(=O)C(C)(C)NC(=O)c1sccc1C [Isofetamid, N‐[1,1‐dimethyl‐2‐(4‐isopropoxy‐o‐tolyl)‐2‐oxoethyl]‐3‐methylthiophene‐2‐carboxamide] | > 32 µM
